Each structure is given as a SMILES string.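 All cell lines were grown in 96-well plates and treated with compound for 48 hours. GI50 marks 50% less growth.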 Active and inactive are the calls of the source. Cut-off read from the data, not from the text of the source: active = GI50 up to about 1.1 µM and inactive = higher.

Some test systems named below: SF-268; OVCAR-4; SK-MEL-5; HOP-92; SF-539; UACC-62; MOLT-4; MDA-N; SK-OV-3; PC-3; NCI/ADR-RES; A498; NCI-H522; HCT-15; MCF7; OVCAR-5; OVCAR-8; RXF 393; CCRF-CEM; SNB-19.
What all share (experiment): inhibition of tumour cell growth, NCI panel, 48 h

As to `COc1ccccc1NC(=S)N/N=C1\C(=O)Nc2ccccc21`, the GI50 in the experiment with SF-268 is 0.583 µM (active); in the experiment on OVCAR-4, > 100 µM (inactive); in the experiment with SK-MEL-5, 73.5 µM (inactive); with HOP-92, > 100 µM (inactive); with SF-539, > 100 µM (inactive); in the experiment on UACC-62 it was > 100 µM (inactive). Further, the GI50 in the experiment on MOLT-4, with MDA-N, with SK-OV-3, in the experiment with PC-3, in the experiment with NCI/ADR-RES and in the experiment on A498 was > 100 µM (inactive) each time. The GI50 in the experiment on NCI-H522 was > 100 µM (inactive); in the experiment with HCT-15 it was more than 100 µM; in the experiment with MCF7, 42.6 µM (inactive); with OVCAR-5, > 100 µM (inactive); in the experiment on OVCAR-8, > 100 µM (inactive); in the experiment on RXF 393, > 100 µM (inactive). Also, the GI50 in the experiment on CCRF-CEM and in the experiment on SNB-19 was > 100 µM (inactive) throughout.
Take `CC(=O)OCC1OC(n2cnc3nc(Br)[nH]c(=O)c32)C(OC(C)=O)C1OC(C)=O` (stereo not given): the GI50 with SF-268, with OVCAR-4, in the experiment on SK-MEL-5, in the experiment on HOP-92, in the experiment with SF-539 and in the experiment on UACC-62 was > 100 µM (inactive) each time. For the same molecule, the GI50 with MOLT-4, in the experiment with MDA-N, in the experiment with SK-OV-3, in the experiment with PC-3, in the experiment on NCI/ADR-RES and with A498 was > 100 µM (inactive) throughout. In addition, the GI50 was > 100 µM (inactive) in the experiment on NCI-H522; more than 100 µM in the experiment with HCT-15; 62.4 µM (inactive) in the experiment on MCF7; > 100 µM (inactive) with OVCAR-5; > 100 µM (inactive) in the experiment with OVCAR-8; > 100 µM (inactive) with RXF 393. Moreover, the GI50 with CCRF-CEM and in the experiment on SNB-19 was > 100 µM (inactive) each time.
For `C=C1CC[C@@H](CCC2CCC3(OC2)O[C@]2(O)CC[C@@]3(C)OC2(C)C)C(C)(C)[C@H]1C/C=C1\CCOC1=O` (stereo not given in full), the GI50 in the experiment on SF-268 was 27.2 µM (inactive); in the experiment with OVCAR-4 it was 12.3 µM (inactive); with SK-MEL-5, 0.0244 µM (active); in the experiment on HOP-92 it was 10.5 µM (inactive); in the experiment with SF-539, 5.3 µM (inactive); in the experiment with UACC-62, 27 µM (inactive). Further, the GI50 with MOLT-4 is 1.97 µM (inactive); in the experiment with MDA-N, 20 µM (inactive); in the experiment with SK-OV-3, 20.4 µM (inactive); with PC-3, 4.61 µM (inactive); with NCI/ADR-RES, 1.78 µM (inactive); in the experiment with A498, 13.3 µM (inactive). In addition, the GI50 is 5.32 µM (inactive) in the experiment on NCI-H522; 11.3 µM in the experiment with HCT-15; 1.76 µM (inactive) in the experiment on MCF7; > 56.1 µM (inactive) with OVCAR-5; 15.3 µM (inactive) in the experiment on OVCAR-8; 14.9 µM (inactive) with RXF 393. Also, the GI50 in the experiment with CCRF-CEM was 10.4 µM (inactive); with SNB-19, 51.5 µM (inactive).
On to `COc1ccccc1/C=C\c1cnnc2ccccc12`, for which the GI50 in the experiment on SF-268 was > 10 µM (inactive); in the experiment with OVCAR-4 it was > 10 µM (inactive); with SK-MEL-5 it was 6.71 µM (inactive); in the experiment on HOP-92, 0.0372 µM (active); in the experiment on SF-539 it was > 10 µM (inactive); with UACC-62, > 10 µM (inactive). The GI50 in the experiment with MOLT-4 was 6.24 µM (inactive); in the experiment on MDA-N, 3.33 µM (inactive); in the experiment on SK-OV-3 it was > 10 µM (inactive); in the experiment on PC-3, > 10 µM (inactive); in the experiment on NCI/ADR-RES, > 10 µM (inactive); with A498, > 10 µM (inactive). Further, the GI50 is > 10 µM (inactive) in the experiment with NCI-H522; more than 10 µM in the experiment on HCT-15; 3.56 µM (inactive) in the experiment with MCF7; > 10 µM (inactive) in the experiment with OVCAR-5; > 10 µM (inactive) with OVCAR-8; > 10 µM (inactive) with RXF 393. Besides, the GI50 was 6.59 µM (inactive) in the experiment on CCRF-CEM and > 10 µM (inactive) in the experiment with SNB-19.
On to `C=C1c2[nH]c3ccccc3c2C2C(CC)C1CCN2C` (stereo not given), for which the GI50 was > 100 µM (inactive) in the experiment on SF-268; 53.6 µM (inactive) in the experiment on OVCAR-4; 61.1 µM (inactive) with SK-MEL-5; 25.6 µM (inactive) in the experiment with HOP-92; 92 µM (inactive) in the experiment with SF-539; 48.4 µM (inactive) in the experiment on UACC-62. The GI50 was 27.2 µM (inactive) in the experiment with MOLT-4; 72.8 µM (inactive) in the experiment with MDA-N; > 100 µM (inactive) in the experiment on SK-OV-3; 32.8 µM (inactive) with PC-3; 42.2 µM (inactive) in the experiment with NCI/ADR-RES; 18.9 µM (inactive) in the experiment on A498. In addition, the GI50 in the experiment with NCI-H522 is 63.2 µM (inactive); in the experiment with HCT-15 it was 90.8 µM; in the experiment on MCF7, 56.1 µM (inactive); in the experiment with OVCAR-5 it was > 100 µM (inactive); with OVCAR-8, 53.1 µM (inactive); in the experiment with RXF 393, > 100 µM (inactive). The GI50 with CCRF-CEM was 54.6 µM (inactive); with SNB-19, > 100 µM (inactive).

The values above are taken from ChEMBL document CHEMBL1201862, “PubChem BioAssay data set” (2004).
